Measured values as given in patent US20260262643A1, “HERBICIDAL BENZOXAZINES” (FMC CORPORATION, priority 2022, published 2026).

How the values were obtained:
wheat [1] = assay: Test C preemergence; format: in vivo, Triticum aestivum; conditions: for Wheat plant response rating: preemergence; for Plant response rating, Wheat: Preemergence
In short: (§1)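 Visual injury score, 0–100 (100 = complete control), taken 10 days after treatment relative to untreated controls. Pre: directed spray onto soil over sown seeds. Post: foliar spray at one- to two-leaf stage, 2–10 cm. Solvent/surfactant formulation; loam–sand soil; greenhouse.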

oat, wild [2] = assay: Test C postemergence; format: in vivo, Avena fatua; conditions: 10 days
In short: as §1

ryegrass, Italian [3] = assay: Test C postemergence; format: in vivo, Lolium multiflorum; conditions: 10 days
In short: as §1

wheat [4] = assay: Test C postemergence; format: in vivo, Triticum aestivum; conditions: 10 days
In short: as §1

rice = assay: Test D flooded paddy test; format: in vivo, Oryza sativa; conditions: 250 g ai/ha, applied to paddy water, visual rating after 13 to 14 days, scale 0 to 100 (0 no effect, 100 complete control)
In short: (§2)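 Visual ratings from 0, meaning no effect, to 100, meaning complete control, were assigned against untreated controls 13 to 14 days after compounds were added to the floodwater of pots kept 3 cm deep, with plants at the 2-leaf stage.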

horseweed = assay: Test C postemergence; format: in vivo, Erigeron canadensis; conditions: 10 days
In short: as §1

barnyardgrass [5] = assay: Test C preemergence; format: in vivo, Echinochloa crusgalli; conditions: for Barnyardgrass plant response rating: preemergence; for Plant response rating, Barnyardgrass: Preemergence
In short: as §1

blackgrass [6] = assay: Test C preemergence; format: in vivo, Alopecurus myosuroides; conditions: for Blackgrass plant response rating: preemergence; for Plant response rating, Blackgrass: Preemergence
In short: as §1

pigweed, palmer [7] = assay: Test C preemergence; format: in vivo, Amaranthus palmeri; conditions: for Pigweed, Palmer plant response rating: preemergence; for Plant response rating, Pigweed, Palmer: Preemergence
In short: as §1

ragweed [8] = assay: Test C preemergence; format: in vivo, Ambrosia artemisiifolia; conditions: for Ragweed plant response rating: preemergence; for Plant response rating, Ragweed: Preemergence
In short: as §1

blackgrass [9] = assay: Test C postemergence; format: in vivo, Alopecurus myosuroides; conditions: 10 days
In short: as §1

barnyardgrass [10] = assay: Test C postemergence; format: in vivo, Echinochloa crusgalli; conditions: 10 days
In short: as §1

soybean [11] = assay: Test C postemergence; format: in vivo, Glycine max; conditions: 10 days
In short: as §1

ducksalad = assay: Test D flooded paddy test; format: in vivo, Heteranthera limosa; conditions: 250 g ai/ha, applied to paddy water, visual rating after 13 to 14 days, scale 0 to 100 (0 no effect, 100 complete control)
In short: as §2

sedge, umbrella = assay: Test D flooded paddy test; format: in vivo, Cyperus difformis; conditions: 250 g ai/ha, applied to paddy water, visual rating after 13 to 14 days, scale 0 to 100 (0 no effect, 100 complete control)
In short: as §2

kochia [12] = assay: Test C postemergence; format: in vivo, Bassia scoparia; conditions: 10 days
In short: as §1

barnyardgrass [13] = assay: Test D flooded paddy test; format: in vivo, Echinochloa crus-galli; conditions: 250 g ai/ha, applied to paddy water, visual rating after 13 to 14 days, scale 0 to 100 (0 no effect, 100 complete control)
In short: as §2

green foxtail [14] = assay: Test C preemergence; format: in vivo, Setaria viridis; conditions: for Foxtail, Green plant response rating: preemergence; for Plant response rating, Foxtail, Green: Preemergence
In short: as §1

ryegrass, Italian [15] = assay: Test C preemergence; format: in vivo, Lolium multiflorum; conditions: for Ryegrass, Italian plant response rating: preemergence; for Plant response rating, Ryegrass, Italian: Preemergence
In short: as §1

corn [16] = assay: Test C postemergence; format: in vivo, Zea mays; conditions: 10 days
In short: as §1

green foxtail [17] = assay: Test C postemergence; format: in vivo, Setaria viridis; conditions: 10 days
In short: as §1

corn [18] = assay: Test C preemergence; format: in vivo, Zea mays; conditions: for Corn plant response rating: preemergence; for Plant response rating, Corn: Preemergence
In short: as §1

oat, wild [19] = assay: Test C preemergence; format: in vivo, Avena fatua; conditions: for Oat, Wild plant response rating: preemergence; for Plant response rating, Oat, Wild: Preemergence
In short: as §1

pigweed, palmer [20] = assay: Test C postemergence; format: in vivo, Amaranthus palmeri; conditions: 10 days
In short: as §1

kochia [21] = assay: Test C preemergence; format: in vivo, Bassia scoparia; conditions: for Kochia plant response rating: preemergence; for Plant response rating, Kochia: Preemergence
In short: as §1

galium = assay: Test C postemergence; format: in vivo, Galium aparine; conditions: 10 days
In short: as §1

soybean [22] = assay: Test C preemergence; format: in vivo, Glycine max; conditions: for Soybean plant response rating: preemergence; for Plant response rating, Soybean: Preemergence
In short: as §1

ragweed [23] = assay: Test C postemergence; format: in vivo, Ambrosia artemisiifolia; conditions: 10 days
In short: as §1

[24] = 500 g ai/ha, 0 to 100 scale (0 no effect, 100 complete control)
[25] = 125 g ai/ha, 0 to 100 scale, 0 no effect, 100 complete control
[26] = 500 g ai/ha, postemergence, 0 to 100 scale (0 no effect, 100 complete control)
[27] = Postemergence, 125 g ai/ha, 0 to 100 scale (0 no effect, 100 complete control)
[28] = 500 g ai/ha, visual rating after 10 days, 0 to 100 scale (0 no effect, 100 complete control)
[29] = Test C, 125 g ai/ha, 0 to 100 scale (0 no effect, 100 complete control)
[30] = 125 g ai/ha, postemergence, 0 to 100 scale, 0 no effect, 100 complete control
[31] = Postemergence, 500 g ai/ha, visual 0 to 100 scale (0 no effect, 100 complete control)

Structure (SMILES): CC(C)(C)c1ncn(-c2cccc(C(=O)N3CC(C(F)(F)F)Oc4c(Cl)cccc43)c2)n1 (centres unmarked) [Compound 353]
- Wheat plant response rating (wheat [1]; [24]): 30
- Plant response rating, Wheat (wheat [1]; [25]): 10
- Plant response rating, Oat, Wild (oat, wild [2]; [26]): 0
- Plant response rating, Oat, Wild (oat, wild [2]; [27]): 0
- Plant response rating, Ryegrass, Italian (ryegrass, Italian [3]; [26]): 40
- Plant response rating, Ryegrass, Italian (ryegrass, Italian [3]; [27]): 20
- Plant response rating, Wheat (wheat [4]; [26]): 20
- Plant response rating, Wheat (wheat [4]; [27]): 20
- Plant response rating, Rice (Flood) (rice): 0
- Plant response rating, Horseweed (horseweed; [26]): 0
- Plant response rating, Horseweed (horseweed; [27]): 20
- Barnyardgrass plant response rating (barnyardgrass [5]; [24]): 70
- Plant response rating, Barnyardgrass (barnyardgrass [5]; [25]): 20
- Blackgrass plant response rating (blackgrass [6]; [24]): 50
- Plant response rating, Blackgrass (blackgrass [6]; [25]): 0
- Pigweed, Palmer plant response rating (pigweed, palmer [7]; [24]): 100
- Plant response rating, Pigweed, Palmer (pigweed, palmer [7]; [25]): 90
- Ragweed plant response rating (ragweed [8]; [24]): 0
- Plant response rating, Ragweed (ragweed [8]; [25]): 0
- Plant response rating, Blackgrass (blackgrass [9]; [26]): 30
- Plant response rating, Blackgrass (blackgrass [9]; [27]): 0
- Plant response rating, Barnyardgrass (barnyardgrass [10]; [26]): 30
- Plant response rating, Barnyardgrass (barnyardgrass [10]; [27]): 10
- Plant response rating, Soybean (soybean [11]; [26]): 80
- Plant response rating, Soybean (soybean [11]; [27]): 80
- Plant response rating, Ducksalad (Flood) (ducksalad): 0
- Plant response rating, Sedge, Umbrella (Flood) (sedge, umbrella): 0
- Plant response rating, Kochia (kochia [12]; [26]): 70
- Plant response rating, Kochia (kochia [12]; [27]): 60
- Plant response rating, Barnyardgrass (Flood) (barnyardgrass [13]): 0
- Foxtail, Green plant response rating (green foxtail [14]; [24]): 100
- Plant response rating, Foxtail, Green (green foxtail [14]; [25]): 90
- Ryegrass, Italian plant response rating (ryegrass, Italian [15]; [24]): 90
- Plant response rating, Ryegrass, Italian (ryegrass, Italian [15]; [25]): 80
- Plant response rating, Corn (corn [16]; [26]): 10
- Plant response rating, Corn (corn [16]; [27]): 10
- Plant response rating, Foxtail, Green (green foxtail [17]; [26]): 40
- Plant response rating, Foxtail, Green (green foxtail [17]; [27]): 20
- Corn plant response rating (corn [18]; [24]): 10
- Plant response rating, Corn (corn [18]; [25]): 10
- Oat, Wild plant response rating (oat, wild [19]; [24]): 80
- Plant response rating, Oat, Wild (oat, wild [19]; [25]): 30
- Plant response rating, Pigweed, Palmer (pigweed, palmer [20]; [26]): 100
- Plant response rating, Pigweed, Palmer (pigweed, palmer [20]; [27]): 90
- Kochia plant response rating (kochia [21]; [24]): 70
- Plant response rating, Kochia (kochia [21]; [25]): 0
- Plant response rating, Galium (galium; [26]): 90
- Plant response rating, Galium (galium; [27]): 70
- Soybean plant response rating (soybean [22]; [24]): 40
- Plant response rating, Soybean (soybean [22]; [25]): 20
- Plant response rating, Ragweed (ragweed [23]; [26]): 60
- Plant response rating, Ragweed (ragweed [23]; [27]): 50

Structure (SMILES): Cc1ccc(-n2cnc(C3(C(F)(F)F)CC3)n2)cc1C(=O)N1C[C@H](C)Oc2c(Cl)cccc21 [Compound 175]
- Plant response rating, Wheat (wheat [1]; [28]): 20
- Wheat plant response rating (wheat [1]; [29]): 20
- Plant response rating, Oat, Wild (oat, wild [2]; [30]): 10
- Plant response rating, Oat, Wild (oat, wild [2]; [31]): 20
- Plant response rating, Ryegrass, Italian (ryegrass, Italian [3]; [30]): 50
- Plant response rating, Ryegrass, Italian (ryegrass, Italian [3]; [31]): 60
- Plant response rating, Wheat (wheat [4]; [30]): 10
- Plant response rating, Wheat (wheat [4]; [31]): 10
- Plant response rating, Rice (Flood) (rice): 0
- Plant response rating, Horseweed (horseweed; [30]): 80
- Plant response rating, Horseweed (horseweed; [31]): 60
- Plant response rating, Barnyardgrass (barnyardgrass [5]; [28]): 100
- Barnyardgrass plant response rating (barnyardgrass [5]; [29]): 70
- Plant response rating, Blackgrass (blackgrass [6]; [28]): 10
- Blackgrass plant response rating (blackgrass [6]; [29]): 0
- Plant response rating, Pigweed, Palmer (pigweed, palmer [7]; [28]): 100
- Pigweed, Palmer plant response rating (pigweed, palmer [7]; [29]): 100
- Plant response rating, Ragweed (ragweed [8]; [28]): 70
- Ragweed plant response rating (ragweed [8]; [29]): 20
- Plant response rating, Blackgrass (blackgrass [9]; [30]): 10
- Plant response rating, Blackgrass (blackgrass [9]; [31]): 50
- Plant response rating, Barnyardgrass (barnyardgrass [10]; [30]): 20
- Plant response rating, Barnyardgrass (barnyardgrass [10]; [31]): 50
- Plant response rating, Soybean (soybean [11]; [30]): 100
- Plant response rating, Soybean (soybean [11]; [31]): 100
- Plant response rating, Ducksalad (Flood) (ducksalad): 0
- Plant response rating, Sedge, Umbrella (Flood) (sedge, umbrella): 0
- Plant response rating, Kochia (kochia [12]; [30]): 90
- Plant response rating, Kochia (kochia [12]; [31]): 100
- Plant response rating, Barnyardgrass (Flood) (barnyardgrass [13]): 0
- Plant response rating, Foxtail, Green (green foxtail [14]; [28]): 100
- Foxtail, Green plant response rating (green foxtail [14]; [29]): 90
- Plant response rating, Ryegrass, Italian (ryegrass, Italian [15]; [28]): 90
- Ryegrass, Italian plant response rating (ryegrass, Italian [15]; [29]): 80
- Plant response rating, Corn (corn [16]; [30]): 0
- Plant response rating, Corn (corn [16]; [31]): 20
- Plant response rating, Foxtail, Green (green foxtail [17]; [30]): 30
- Plant response rating, Foxtail, Green (green foxtail [17]; [31]): 70
- Plant response rating, Corn (corn [18]; [28]): 20
- Corn plant response rating (corn [18]; [29]): 0
- Plant response rating, Oat, Wild (oat, wild [19]; [28]): 50
- Oat, Wild plant response rating (oat, wild [19]; [29]): 20
- Plant response rating, Pigweed, Palmer (pigweed, palmer [20]; [30]): 90
- Plant response rating, Pigweed, Palmer (pigweed, palmer [20]; [31]): 90
- Plant response rating, Kochia (kochia [21]; [28]): 100
- Kochia plant response rating (kochia [21]; [29]): 40
- Plant response rating, Galium (galium; [30]): 90
- Plant response rating, Galium (galium; [31]): 90
- Plant response rating, Soybean (soybean [22]; [28]): 90
- Soybean plant response rating (soybean [22]; [29]): 60
- Plant response rating, Ragweed (ragweed [23]; [30]): 20
- Plant response rating, Ragweed (ragweed [23]; [31]): 70
